For one test, the system named is acute thermal pain. In words: Plantar test (radiant heat, Hargreaves): paw withdrawal latency after intrathecal injection. Format: in vivo, Male Wistar rats. Particulars: for Paw withdrawal latencies: 240 minutes after injection, mean ± sem, vehicle 11.2 ± 0.24 s, cut-off 20 sec; for overall effect on acute thermal pain over the dose range tested: 0.001 to 1 mg/kg intrathecal; for time after injection of the maximum of pro- or antinociception: intrathecal injection. The method, then:
The pro- or antinociceptive properties of (+/-)-mirtazapine and its enantiomers R(-)-mirtazapine and S(+)mirtazapine, respectively, were analyzed in acute thermal pain (Hargreaves et al., Pain, 32 (1988) 77-88). Male Wistar rats weighing 350-400 g (housed three per cage, access to foot and water ad libitum, room maintained at 22°C ± 0,5°C and on a 12:12 light- dark cycle) were anesthetized with intraperitoneal (i.p.) injection of pentobarbital (60 mg/kg i.p.). The rats were implanted with polyethylene catheters (inner diameter 0.28 mm, outer diameter 0.61 mm), which were advanced from the cisterna magna to the rostral edge of the lumbar enlargement as described before (Muth-Selbach et al., Anesthesiology, 101 (2004) 753-8; Ahmadi et al., Science, 300, (2003) 2094-2097; Zeilhofer et al., J Neurosci 20 (2000) 4922-9). Rats with impaired motor function after catheter implantation were excluded from the study. Paw withdrawal latencies were tested 6-10 days after surgery at all times in the same air conditioned room. The lateral plantar surface of both hind paws was exposed to a defined radiant heat stimulus through a transparent perspex surface (Plantar Test, Hugo Basile Inc., Italy, Comerio) and paw withdrawal latencies were recorded (Hargreaves et al., op.cit.). The animal is unrestrained and unhandled during experiments. When the rat feels pain and withdraws its paw, the sudden drop of reflected radiation switches off the I.R. source and stops the reaction time counter so that the withdrawal latency to the nearest 0.1 s is determined. Paw withdrawal latencies of both hind paws were determined from 4 independent measurements for each time point. A cut-off time of 20 sec was set to avoid tissue damage.
Behavior as described above was tested before and 120, 240 min and 24 hours after application of either substance. In order to find the maximum effect over time, groups of 4 animals were tested before and 30, 60, 120, 180, 240 min and 24 hours after application of 0.1 mg/kg (+/-)-mirtazapine.
(+/-)-Mirtazapine, R(-)-mirtazapine, S(+)mirtazapine or vehicle (0.9% NaCl) were applied to the cerebrospinal fluid via intrathecal catheters in a total volume of 10 µl. Rats were randomly assigned to the different treatment groups consisting of 6 to 9 rats each. All behavioral observations were performed in a standardized blinded fashion.
After the behavioral tests, rats were sacrificed by a lethal dose of pentobarbital i.p.. Proper position of the catheter tip was verified after laminectomy and methylene blue injection through the catheter. All behavioral tests were performed with permission of the German authorities concerned with the law on experiments involving animals and were in accordance with the guidelines of the International Association for the Study of Pain.
(+/-)-Mirtazapine (1, 2, 3, 4, 10, 14b-Hexahydro-2-methyl-pyrazino-[2, 1-a] pyrido [2, 3-c] [2] benzazepin, free base), R(-)-mirtazapine and S(+)-mirtazapine maleate salt were generously donated by N.V. Organon, Oss (The Netherlands) and were of the highest quality available. All chemicals were dissolved in 0.9 % NaCl and stored in aliquots at - 70°C. Fresh dilutions were made with 0.9 % NaCl on every experimental day.
Group data are presented as mean + standard error of the mean(sem). Withdrawal latencies in the different treatment groups were analyzed by analysis of variance (repeated measurements) followed by LSD post hoc tests (SAS Software System). P ≤ 0.05 was assumed significant. In detail, for each dose (i.e. 1, 0.1, 0.01 and 0.001 mg/kg) twelve comparisons were made at five time points.

A further test has as its system thermal pain. The following applies: 3-30 mg/kg intraperitoneally, rats; cited from earlier work.
The subject of a further test is neuropathic pain. Particulars: chronic constriction injury model, rats; cited from earlier work.
In test [1] the test system is acute nociceptive responses. Particulars: rats; cited from earlier work.
Test [2] concerns hypothermic response to a 5-HT1-agonist. Particulars: normal rats, chronic administration; compared with one of the enantiomers alone; cited from earlier work.
Test [3] has as its system α2-adrenergic autoreceptors. Particulars: compared with R(-)-mirtazapine; cited from earlier work.
The mark [4] stands for this setting: 0.001 mg/kg intrathecal (lowest dose).
[5] abbreviates: 0.01 mg/kg intrathecal, time points 120, 240 minutes, 24 hours as stated per substance.
The mark [6] stands for this setting: 0.1 mg/kg intrathecal, time points 120, 240 minutes, 24 hours as stated per substance.
Where [7] appears, read: 1 mg/kg intrathecal, time points 120, 240 minutes, 24 hours as stated per substance.

With `CN1CCN2c3ncccc3Cc3ccccc3C2C1` (racemic) [(+/-)-mirtazapine, 1,2,3,4, 10, 14b-Hexahydro-2-methyl-pyrazino-[2,1-a] pyrido [2,3-c] [2] benzazepin], the “pro- or antinociceptive effect” value was “neither pro- nor antinociceptive” in the test on acute thermal pain (setting [4]), “antinociceptive” in the test with acute thermal pain (setting [5]), “antinociceptive” with acute thermal pain (setting [6]) and “profound pronociceptive effect” with acute thermal pain (setting [7]). For the same compound, the Paw withdrawal latencies is reported as 11.5 ± 0.9 s in the test on acute thermal pain (0.001 mg/kg intrathecal), 14.5 ± 1.0 s with acute thermal pain (0.01 mg/kg intrathecal), 14.4 ± 0.3 s with acute thermal pain (0.1 mg/kg intrathecal) and 6.9 ± 0.4 s in the test on acute thermal pain (1 mg/kg intrathecal). Besides, in the test with acute thermal pain, the “overall effect on acute thermal pain over the dose range tested” value (from here on “overall effect … over the dose range tested”) is given as “dose-dependently exerted pro- and- antinociceptive activity”. In addition, the “time after injection of the maximum of pro- or antinociception” value (“time after injection” below) in the test with acute thermal pain was found to be 240 min. Moreover, in the test on thermal pain, the “antinociceptive activity in thermal pain (hot plate)” value was “exhibited antinociceptive activity”. In addition, in the test on neuropathic pain, the mechanical allodynia result is “not”. The mechanical hyperalgesia result with neuropathic pain was “significantly attenuated”. Also, in the test on neuropathic pain, the thermal hyperalgesia entry is recorded as “significantly attenuated”. For the same compound, in test [1], the “acute nociceptive responses in the tail flick test” value is recorded as “did not affect”. In addition, in test [2], the “hypothermic response to a 5-HT1-agonist” value is recorded as “potentiated”.

Turning to `CN1CCN2c3ncccc3Cc3ccccc3[C@@H]2C1` [R(-)-mirtazapine], the “pro- or antinociceptive effect” value with acute thermal pain (setting [4]) was “neither pro- nor antinociceptive”; with acute thermal pain (setting [5]), “antinociceptive”; with acute thermal pain (setting [6]), “antinociceptive”; in the test with acute thermal pain (setting [7]), “antinociceptive”. In addition, the Paw withdrawal latencies with acute thermal pain (0.001 mg/kg intrathecal) came to 11.3 ± 0.9 s; in the test with acute thermal pain (0.01 mg/kg intrathecal), 15.6 ± 0.6 s; in the test with acute thermal pain (0.1 mg/kg intrathecal) it was 13.8 ± 0.4 s; in the test with acute thermal pain (1 mg/kg intrathecal), 13.5 ± 0.5 s. Moreover, the “overall effect … over the dose range tested” value in the test with acute thermal pain is “only elicited antinociceptive effects”. In the test on acute thermal pain, the “time after injection” value amounted to 240 min.

Regarding `CN1CCN2c3ncccc3Cc3ccccc3[C@H]2C1` [S(+)-mirtazapine], the “pro- or antinociceptive effect” value is given as “neither pro- nor antinociceptive” with acute thermal pain (setting [4]), “pronociceptive” in the test on acute thermal pain (setting [5]), “pronociceptive” in the test on acute thermal pain (setting [6]) and “pronociceptive” in the test with acute thermal pain (setting [7]). The Paw withdrawal latencies in the test with acute thermal pain (0.001 mg/kg intrathecal) was found to be 8.7 ± 0.8 s; with acute thermal pain (0.01 mg/kg intrathecal) it was 8.4 ± 1.1 s; in the test with acute thermal pain (0.1 mg/kg intrathecal) it was 8.1 ± 1.0 s; with acute thermal pain (1 mg/kg intrathecal), 7.4 ± 0.4 s. In addition, the “overall effect … over the dose range tested” value in the test with acute thermal pain is recorded as “exclusively pronociceptive”. Moreover, the “time after injection” value in the test on acute thermal pain was 240 min. The “potency as blocker of α2-adrenergic autoreceptors” value in test [3] is “more potent blocker”.

Values taken from patent EP1792618A1, “R-mirtazapine for the treatment of pain” (Freynhagen, Rainer, priority 2005, dated 2007).
